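Abbreviation: GI50, concentration required for 50% inhibition of growth. Definition used: TGI = concentration required for complete inhibition of growth.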
Assays:
Experiment in all cases: inhibition of tumour cell growth, NCI panel, 384-well format
K-562 leukemia = tested on: K-562 leukemia
CAKI-1 renal = tested on: CAKI-1 renal
MCF7 breast = tested on: MCF7 breast
HCT-15 colon = tested on: HCT-15 colon
HCT-116 colon = tested on: HCT-116 colon
786-0 renal = tested on: 786-0 renal
MDA-MB-435 melanoma = tested on: MDA-MB-435 melanoma
SN12C renal = tested on: SN12C renal
NCI-H460 NSCLC = tested on: NCI-H460 NSCLC
HT29 colon = tested on: HT29 colon
PC-3 prostate = tested on: PC-3 prostate
NCI-H226 lung = tested on: NCI-H226 lung
KM12 colon = tested on: KM12 colon
MDA-MB-231 breast = tested on: MDA-MB-231 breast
NCI-H322M lung = tested on: NCI-H322M lung
A498 renal = tested on: A498 renal
IGROV1 ovarian = tested on: IGROV1 ovarian
SF-268 CNS = tested on: SF-268 CNS
SR leukemia = tested on: SR leukemia
NCI/ADR-RES ovarian = tested on: NCI/ADR-RES ovarian
SK-OV-3 ovarian = tested on: SK-OV-3 ovarian
MOLT-4 leukemia = tested on: MOLT-4 leukemia
T-47D breast = tested on: T-47D breast
NCI-H522 lung = tested on: NCI-H522 lung
TK-10 renal = tested on: TK-10 renal
RPMI-8226 leukemia = tested on: RPMI-8226 leukemia
CCRF-CEM leukemia = tested on: CCRF-CEM leukemia
M14 melanoma = tested on: M14 melanoma
SW-620 colon = tested on: SW-620 colon
SK-MEL-5 melanoma = tested on: SK-MEL-5 melanoma
SF-295 CNS = tested on: SF-295 CNS
EKVX NSCLC = tested on: EKVX NSCLC
SF-539 CNS = tested on: SF-539 CNS
OVCAR-8 ovarian = tested on: OVCAR-8 ovarian
UO-31 renal = tested on: UO-31 renal
BT-549 breast = tested on: BT-549 breast
HS 578T breast = tested on: HS 578T breast
SK-MEL-2 melanoma = tested on: SK-MEL-2 melanoma
RXF 393 renal = tested on: RXF 393 renal
MALME-3M melanoma = tested on: MALME-3M melanoma
SNB-19 CNS = tested on: SNB-19 CNS
MDA-MB-468 breast = tested on: MDA-MB-468 breast
NCI-H23 lung = tested on: NCI-H23 lung
HOP-92 NSCLC = tested on: HOP-92 NSCLC
OVCAR-3 ovarian = tested on: OVCAR-3 ovarian
U251 glioblastoma = tested on: U251 glioblastoma
HCC-2998 colon = tested on: HCC-2998 colon

## Cc1cc(Nc2ncc(Cl)c(Nc3ccccc3S(=O)(=O)C(C)C)n2)c(OC(C)C)cc1C1CCNCC1
K-562 leukemia
  GI50: 978 nM
  TGI: 2150 nM
CAKI-1 renal
  GI50: 1750 nM
  TGI: 3.14 µM
MCF7 breast
  GI50: 297 nM
  TGI: 1300 nM
HCT-15 colon
  GI50: 648 nM
  TGI: 1760 nM
HCT-116 colon
  GI50: 826 nM
  TGI: 2070 nM
786-0 renal
  GI50: 1260 nM
  TGI: 2520 nM
MDA-MB-435 melanoma
  GI50: 1270 nM
  TGI: 2550 nM
SN12C renal
  GI50: 1750 nM
  TGI: 3.14 µM
NCI-H460 NSCLC
  GI50: 1080 nM
  TGI: 2370 nM
HT29 colon
  GI50: 408 nM
  TGI: 1460 nM
PC-3 prostate
  GI50: 1390 nM
  TGI: 2710 nM
NCI-H226 lung
  GI50: 929 nM
  TGI: 2240 nM
KM12 colon
  GI50: 1450 nM
  TGI: 2780 nM
MDA-MB-231 breast
  GI50: 1480 nM
  TGI: 2810 nM
NCI-H322M lung
  GI50: 1320 nM
  TGI: 2600 nM
A498 renal
  GI50: 1620 nM
  TGI: 2990 nM
IGROV1 ovarian
  GI50: 1270 nM
  TGI: 2580 nM
SF-268 CNS
  GI50: 1700 nM
  TGI: 3.08 µM
SR leukemia
  GI50: 13.9 nM
  TGI: 26.1 nM
NCI/ADR-RES ovarian
  GI50: 1540 nM
  TGI: 2890 nM
SK-OV-3 ovarian
  GI50: 1750 nM
  TGI: 3.16 µM
MOLT-4 leukemia
  GI50: 711 nM
  TGI: 1980 nM
T-47D breast
  GI50: 1400 nM
  TGI: 2710 nM
NCI-H522 lung
  GI50: 1760 nM
  TGI: 3.15 µM
TK-10 renal
  GI50: 1570 nM
  TGI: 2920 nM
RPMI-8226 leukemia
  GI50: 720 nM
  TGI: 1980 nM
CCRF-CEM leukemia
  GI50: 1100 nM
  TGI: 2430 nM
M14 melanoma
  GI50: 1270 nM
  TGI: 2550 nM
SW-620 colon
  GI50: 1060 nM
  TGI: 2330 nM
SK-MEL-5 melanoma
  GI50: 668 nM
  TGI: 1280 nM
SF-295 CNS
  GI50: 1700 nM
  TGI: 3.09 µM
EKVX NSCLC
  GI50: 1290 nM
  TGI: 2570 nM
SF-539 CNS
  GI50: 1870 nM
  TGI: 3.29 µM
OVCAR-8 ovarian
  GI50: 1550 nM
  TGI: 2900 nM
UO-31 renal
  GI50: 1690 nM
  TGI: 3.07 µM
BT-549 breast
  GI50: 1880 nM
  TGI: 3.3 µM
HS 578T breast
  GI50: 1640 nM
  TGI: 3 µM
SK-MEL-2 melanoma
  GI50: 1020 nM
  TGI: 2190 nM
RXF 393 renal
  GI50: 1900 nM
  TGI: 3.31 µM
MALME-3M melanoma
  GI50: 551 nM
  TGI: 1720 nM
SNB-19 CNS
  GI50: 1830 nM
  TGI: 3.24 µM
MDA-MB-468 breast
  GI50: 1100 nM
  TGI: 2340 nM
NCI-H23 lung
  GI50: 1270 nM
  TGI: 2550 nM
HOP-92 NSCLC
  GI50: 1210 nM
  TGI: 2450 nM
OVCAR-3 ovarian
  GI50: 1590 nM
  TGI: 2960 nM
U251 glioblastoma
  GI50: 1780 nM
  TGI: 3.19 µM
HCC-2998 colon
  GI50: 202 nM
  TGI: 552 nM

Reference: PubChem BioAssay (NCI)
